Data: the NIST ThermoML archive (doi:10.1021/je060243s)
Several values for one entry are separate records, joined by “and”; a condition that tells them apart may be missing. Identical values can stand only once.

Experiment: wn = mass fraction of the nth substance listed
Conditions: Liquid, Pulse-echo method, w2 = 0.5

FC(F)C(F)(F)F [pentafluoroethane] + FCF
speed of sound
Conditions | 288.2 K | 298.2 K | 308.25 K | 318.17 K | 328.17 K | 338.16 K
1650 kPa | 500.3 m/s | – | – | – | – | –
1680 kPa | – | 440.6 m/s and 440.2 m/s and 440.3 m/s | – | – | – | –
1750 kPa | 501.7 m/s | 441.7 m/s | – | – | – | –
1880 kPa | 503.4 m/s | 444 m/s | – | – | – | –
2010 kPa | 505.1 m/s | 446 m/s | – | – | – | –
2130 kPa | – | 448.2 m/s | – | – | – | –
2170 kPa | – | – | 383.3 m/s and 383.4 m/s | – | – | –
2250 kPa | 508.2 m/s | 450 m/s | 384.9 m/s | – | – | –
2380 kPa | – | – | 387.7 m/s | – | – | –
2510 kPa | 511.3 m/s | 454 m/s | 390.5 m/s | – | – | –
2750 kPa | 514.7 m/s | 457.8 m/s | 395.6 m/s | 323.4 m/s | – | –
2760 kPa | – | – | – | 323.6 m/s | – | –
2880 kPa | – | – | – | 327.2 m/s | – | –
3010 kPa | 517.7 m/s | 461.7 m/s | 400.6 m/s | 330.8 m/s | – | –
3250 kPa | – | – | – | 337.8 m/s | – | –
3470 kPa | – | – | – | – | 257.9 m/s and 258.1 m/s and 258 m/s | –
3500 kPa | 524 m/s | 469.1 m/s | 409.9 m/s | 344.5 m/s | – | –
3590 kPa | – | – | – | – | 263.4 m/s | –
3720 kPa | – | – | – | – | 269.8 m/s | –
3860 kPa | – | – | – | – | 275.4 m/s | –
4000 kPa | 529.7 m/s | 475.9 m/s | 418.9 m/s | 356.6 m/s | 281.3 m/s | –
4250 kPa | – | – | – | – | 290.2 m/s | –
4340 kPa | – | – | – | – | – | 183.3 m/s
4410 kPa | – | – | – | – | – | 189.7 m/s
4500 kPa | 535.6 m/s | 483 m/s | 427.4 m/s | 367.9 m/s | 298.5 m/s | 200.4 m/s
4750 kPa | – | – | – | – | – | 217.6 m/s
5000 kPa | 541.1 m/s | 489.9 m/s | 435.6 m/s | 378.2 m/s | 313.4 m/s | 231.3 m/s
5500 kPa | – | – | – | – | – | 255.4 m/s
6010 kPa | 552 m/s | 502.6 m/s | 450.5 m/s | 397.4 m/s | 339.3 m/s | 273.8 m/s
7010 kPa | 562.3 m/s | 514.4 m/s | 464.7 m/s | 414.5 m/s | 360.6 m/s | 303.5 m/s
8000 kPa | 572.3 m/s | 525.7 m/s | 477.8 m/s | 429.7 m/s | 379.4 m/s | 327.5 m/s
9000 kPa | 582 m/s | 536.4 m/s | 490.2 m/s | 444.1 m/s | 396.7 m/s | 348.4 m/s
10000 kPa | 591.2 m/s | 546.7 m/s | 501.7 m/s | 457.3 m/s | 412.2 m/s | 366.8 m/s
12000 kPa | 608.7 m/s | 566.4 m/s | 523.6 m/s | 481.7 m/s | 440.2 m/s | 398.9 m/s
14000 kPa | 625.1 m/s | 584.5 m/s | 543.5 m/s | 503.8 m/s | 464.8 m/s | 426.3 m/s
16010 kPa | 640.6 m/s | 601.6 m/s and 601.3 m/s | 562.1 m/s | 524.3 m/s | 487.3 m/s | 450.8 m/s
18000 kPa | 655.7 m/s | 617.3 m/s | 579.5 m/s | 543.1 m/s | 507.4 m/s | 472.9 m/s
20000 kPa | 669.7 m/s | 632.4 m/s | 596 m/s | 560.6 m/s | 526.4 m/s | 493.2 m/s
23000 kPa | 689.6 m/s | 653.8 m/s | 619 m/s | 585.3 m/s | 552.3 m/s | 521.1 m/s
26000 kPa | 708.7 m/s | 673.7 m/s | 640 m/s | 607.9 m/s | 576.7 m/s | 546.3 m/s
29010 kPa | 727 m/s | 693 m/s | 660.1 m/s | 628.9 m/s | 598.7 m/s | 569.7 m/s
32000 kPa | 744 m/s | 711.1 m/s | 678.9 m/s | 648.5 m/s | 619.2 m/s | 591.3 m/s
35000 kPa | 760.4 m/s | 728.5 m/s | 697.2 m/s | 667.3 m/s | 638.6 m/s | 611.3 m/s
40000 kPa | 786.1 m/s | 754.9 m/s | 725.2 m/s | 696.7 m/s | 669 m/s | 642.8 m/s
45000 kPa | 810 m/s | 780.3 m/s | 751.3 m/s | 723.8 m/s | 697.4 m/s | 671.7 m/s
50000 kPa | 833 m/s | 803.7 m/s | 775.7 m/s | 749.1 m/s | 723.3 m/s | 698.8 m/s
55000 kPa | 854.6 m/s | 826.3 m/s | 798.8 m/s | 772.8 m/s | 747.8 m/s | 724.1 m/s
60000 kPa | 875.4 m/s | 847.6 m/s | 821 m/s | 795.7 m/s | 770.9 m/s | 747.7 m/s
65000 kPa | 895.5 m/s | 868.2 m/s | 841.9 m/s | 817.3 m/s | 793.1 m/s | 770.1 m/s

Conditions | speed of sound [m/s]
298.25 K | 440.4
308.25 K | 383.4
318.17 K | 323.4
